With `N#CC1=C(C2CCNCC2)Nc2n[nH]cc2C1c1cccc(C#N)c1Br` (stereo not drawn) [Example 1037, 4-(2-Bromo-3-cyanophenyl)-5-cyano-4,7-dihydro-6-(piperidin-4-yl)-2H-pyrazolo[3,4-b]pyridine] the melting point was > 270 °C.
With `CN1CCCN(CC2=C(C#N)C(c3ccccc3Cl)c3c[nH]nc3N2)CC1.Cl.Cl` (stereo not drawn) the melting point was 204 to 206 °C (dec.).
In the case of `CCCC1=C(C#N)C(c2cccc([N+](=O)[O-])c2Br)c2c[nH]nc2N1` (stereo not drawn) [Example 189, 4-(2-Bromo-3-nitrophenyl)-5-cyano-4,7-dihydro-6-propyl-2H-pyrazolo[3,4-b]pyridine], the melting point is reported as 250 to 255 °C (dec.).
In the case of `CC(C)(C)OC(=O)N1CCC(C2=C(C#N)C(c3cccc(C#N)c3Br)c3c[nH]nc3N2)CC1` (stereo not drawn) [Example 1036, 4-(2-Bromo-3-cyanophenyl)-6-(1-t-butoxycarbonylpiperidin-4-yl)-5-cyano-4,7-dihydro-2H-pyrazolo[3,4-b]pyridine], the melting point is reported as > 270 °C.
In the case of `N#CC1=C(C2CCN(C(=O)c3ccccc3)CC2)Nc2n[nH]cc2C1c1cccc(C#N)c1Br` (stereo not drawn) [Example 1052, 6-(1-Benzoylpiperidin-4-yl)-4-(2-bromo-3-cyanophenyl)-5-cyano-4,7-dihydro-2H-pyrazolo[3,4-b]pyridine], the melting point is reported as > 280 °C.
For `Cl.N#CC1=C(C2CCNCC2)Nc2n[nH]cc2C1c1cccc(C#N)c1Br` (stereo not drawn), the melting point was > 270 °C.
For `CCC1=C(C#N)C(c2ccccc2[N+](=O)[O-])c2c[nH]nc2N1` (stereo not drawn) [Example 192, 5-Cyano-6-ethyl-4,7-dihydro-4-(2-nitrophenyl)-2H-pyrazolo[3,4-b]pyridine], the melting point was 228 to 230 °C (dec.).

First: CCCC1=C(C(=O)OCC)C(c2cccc(C#N)c2OC)c2c[nH]nc2N1 (stereo not drawn) [Example 191, Ethyl 4-(3-cyano-2-methoxyphenyl)-4,7-dihydro-6-propyl-2H-pyrazolo[3,4-b]pyridine-5-carboxylate]
Second: CCCC1=C(C(=O)OCC)C(c2cccc(OC)c2OC)c2c[nH]nc2N1 (stereo not drawn) [Example 46, Ethyl 4-(2,3-dimethoxyphenyl)-4,7-dihydro-6-propyl-2H-pyrazolo[3,4-b]pyridine-5-carboxylate]
The melting point of the first is higher: 220 to 222 °C for the first, 205 to 206 °C for the second.

Going from `N#CC1=C(c2cccs2)Nc2n[nH]cc2C1c1cccc(Cl)c1Cl` (stereo not drawn) [Example 247, 5-Cyano-4-(2,3-dichlorophenyl)-4,7-dihydro-6-(thiophen-2-yl)-2H-pyrazolo[3,4-b]pyridine] to `N#CC1=C(c2cccs2)Nc2n[nH]cc2C1c1cccc2nsnc12` (stereo not drawn) [Example 245, 4-(2,1,3-Benzothiadiazol-4-yl)-5-cyano-4,7-dihydro-6-(thiophen-2-yl)-2H-pyrazolo[3,4-b]pyridine], the melting point rises from 232 °C to 254 °C.

Compared with `CCCOC(=O)n1cc2c(n1)NC(CCC)=C(C(=O)OCC)C2c1ccccc1Cl` (stereo not drawn) [Example 222, Ethyl 4-(2-chlorophenyl)-4,7-dihydro-2-propoxycarbonyl-6-propyl-2H-pyrazolo[3,4-b]pyridine-5-carboxylate], `CCCC1=C(C(=O)OCC)C(c2ccccc2Cl)c2cnn(C(=O)OCC)c2N1` (stereo not drawn) [Example 219, Ethyl 4-(2-chlorophenyl)-1-ethoxycarbonyl-4,7-dihydro-6-propyl-1H-pyrazolo[3,4-b]pyridine-5-carboxylate] is higher in melting point: 59 °C for the first, 88 to 89 °C for the second.

First: CCCC1=C(C#N)C(c2ccccc2Cl)c2c(n[nH]c2-c2cccc3ccccc23)N1 (stereo not drawn) [Example 300, 4-(2-Chlorophenyl)-5-cyano-4,7-dihydro-3-(naphthalen-1-yl)-6-propyl-2H-pyrazolo[3,4-b]pyridine]
Second: CCCC1=C(C#N)C(c2ccccc2Cl)c2c(n[nH]c2C2CC2)N1 (stereo not drawn) [Example 308, 4-(2-Chlorophenyl)-5-cyano-3-cyclopropyl-4,7-dihydro-6-propyl-2H-pyrazolo[3,4-b]pyridine]
The melting point of the first is lower: 254 °C for the first, 270 °C for the second.

Going from `CC(C)C1=C(C#N)C(c2cccc3nocc23)c2c[nH]nc2N1` (stereo not drawn) [Example 332, 4-(2,1-Benzoisoxazol-4-yl)-5-cyano-4,7-dihydro-6-isopropyl-2H-pyrazolo[3,4-b]pyridine] to `CC(C)C1=C(C#N)C(c2ccccc2[N+](=O)[O-])c2c[nH]nc2N1` (stereo not drawn) [Example 262, 5-Cyano-4,7-dihydro-6-isopropyl-4-(2-nitrophenyl)-2H-pyrazolo[3,4-b]pyridine], the melting point falls from 245 °C to 224 °C.

Compared with `CCCC1=C(C(=O)OCC)C(c2cccc3c2OCCC3)c2c[nH]nc2N1` (stereo not drawn) [Example 73, Ethyl 4-(3,4-dihydro-2H-benzopyran-8-yl)-4,7-dihydro-6-propyl-2H-pyrazolo[3,4-b]pyridine-5-carboxylate], `CCCC1=C(C(=O)OCC)C(c2cccc(F)c2F)c2c[nH]nc2N1` (stereo not drawn) [Example 43, Ethyl 4-(2,3-difluorophenyl)-4,7-dihydro-6-propyl-2H-pyrazolo[3,4-b]pyridine-5-carboxylate] is lower in melting point: 208 °C for the first, 207 °C for the second.

First: CCCC1=C(C(=O)OCC)C(c2cccc3nonc23)c2c[nH]nc2N1 (single isomer, unassigned; (+)) [Example 116, (+)Ethyl 4-(2,1,3-benzoxadiazol-4-yl)-4,7-dihydro-6-propyl-2H-pyrazolo[3,4-b]pyridine-5-carboxylate]
Second: CCCC1=C(C(=O)OCC)C(c2cccc(Cl)c2C)c2c[nH]nc2N1 (stereo not drawn) [Example 111, Ethyl 4-(3-chloro-2-methylphenyl)-4,7-dihydro-6-propyl-2H-pyrazolo[3,4-b]pyridine-5-carboxylate]
The melting point of the first is lower: 159 °C for the first, 185 °C for the second.

Compared with `CCCC1=C(C#N)C(c2ccccc2C#N)c2c[nH]nc2N1` (stereo not drawn) [Example 133, 5-Cyano-4-(2-cyanophenyl)-4,7-dihydro-6-propyl-2H-pyrazolo[3,4-b]pyridine], `N#CC1=C(c2ccccc2)Nc2n[nH]cc2C1c1ccccc1C#N` (stereo not drawn) [Example 144, 5-Cyano-4-(2-cyanophenyl)-4,7-dihydro-6-phenyl-2H-pyrazolo[3,4-b]pyridine] is lower in melting point: 218 °C for the first, 148 °C for the second.

`CCCC1=C(C(=O)OCC)C(c2cccc3c2OCCC3)c2c[nH]nc2N1` (single isomer, unassigned; (-)) [Example 188, (−)Ethyl 4-(3,4-dihydro-2H-benzopyran-8-yl)-4,7-dihydro-6-propyl-2H-pyrazolo[3,4-b]pyridine-5-carboxylate] and `CCCC1=C(C(=O)OCC)C(c2cccc3nonc23)c2c[nH]nc2N1` (single isomer, unassigned; (-)) [Example 117, (−)Ethyl 4-(2,1,3-benzoxadiazol-4-yl)-4,7-dihydro-6-propyl-2H-pyrazolo[3,4-b]pyridine-5-carboxylate] cannot be ordered by melting point: 160 to 161 °C for the first, 160 °C for the second.

Compared with `COc1ccccc1C1C(C#N)=C(c2cccs2)Nc2n[nH]cc21` (stereo not drawn) [Example 242, 5-Cyano-4,7-dihydro-4-(2-methoxyphenyl)-6-(thiophen-2-yl)-2H-pyrazolo[3,4-b]pyridine], `COc1ccccc1C1C(C#N)=C(c2ccccc2)Nc2n[nH]cc21` (stereo not drawn) [Example 150, 5-Cyano-4,7-dihydro-4-(2-methoxyphenyl)-6-phenyl-2H-pyrazolo[3,4-b]pyridine] is lower in melting point: 215 °C for the first, 206 °C for the second.

First: CC(=O)N1CCCC(C2=C(C#N)C(c3cccc4nonc34)c3c[nH]nc3N2)C1 (stereo not drawn) [Example 1032, 6-(1-Acetylpiperidin-3-yl)-4-(2,1,3-benzoxadiazol-4-yl)-5-cyano-4,7-dihydro-2H-pyrazolo[3,4-b]pyridine]
Second: CC(C)N1CCC(C2=C(C#N)C(c3cccc4nonc34)c3c[nH]nc3N2)CC1 (stereo not drawn) [Example 1035, 4-(2,1,3-Benzoxadiazol-4-yl)-5-cyano-4,7-dihydro-6-(1-iso-propylpiperidin-4-yl)-2H-pyrazolo[3,4-b]pyridine]
The melting point of the first is lower: 219 °C for the first, 260 °C for the second.

Going from `CC(=O)CC1=C(C#N)C(c2cccc3nonc23)c2c[nH]nc2N1` (stereo not drawn) [Example 1061, 6-Acetylmethyl-4-(2,1,3-benzoxadiazol-4-yl)-5-cyano-4,7-dihydro-2H-pyrazolo[3,4-b]pyridine] to `CC1=C(C#N)C(c2cccc3nonc23)c2c[nH]nc2N1` (stereo not drawn) [Example 176, 4-(2,1,3-Benzoxadiazol-4-yl)-5-cyano-4,7-dihydro-6-methyl-2H-pyrazolo[3,4-b]pyridine], the melting point rises from 200 °C to 212 °C.

Going from `CCOC(=O)C1=C(c2cccs2)Nc2n[nH]cc2C1c1ccccc1Cl` (stereo not drawn) [Example 87, Ethyl 4-(2-chlorophenyl)-4,7-dihydro-6-(thiophen-2-yl)-2H-pyrazolo[3,4-b]pyridine-5-carboxylate] to `CCCC1=C(C(=O)OCC)C(c2ccccc2[N+](=O)[O-])c2c[nH]nc2N1` (stereo not drawn) [Example 41, Ethyl 4,7-dihydro-4-(2-nitrophenyl)-6-propyl-2H-pyrazolo[3,4-b]pyridine-5-carboxylate], the melting point rises from 200 °C to 218 °C.

Compared with `Cc1ccc(C2=C(C#N)C(c3cccc4nonc34)c3c[nH]nc3N2)s1` (stereo not drawn) [Example 299, 4-(2,1,3-Benzoxadiazol-4-yl)-5-cyano-4,7-dihydro-6-(2-methylthiophen-5-yl)-2H-pyrazolo[3,4-b]pyridine], `N#CC1=C(c2cccs2)Nc2n[nH]cc2C1c1cccc2nonc12` (stereo not drawn) [Example 171, 4-(2,1,3-Benzoxadiazol-4-yl)-5-cyano-4,7-dihydro-6-(thiophen-2-yl)-2H-pyrazolo[3,4-b]pyridine] is higher in melting point: 192 °C for the first, 230 °C for the second.

First: CCCCC1=C([N+](=O)[O-])C(c2cccc(Cl)c2Cl)c2c[nH]nc2N1 (stereo not drawn) [Example 127, 6-Butyl-4-(2,3-dichlorophenyl)-4,7-dihydro-5-nitro-2H-pyrazolo[3,4-b]pyridine]
Second: CCCC1=C(C#N)C(c2cccc(N3CCOCC3)c2)c2c[nH]nc2N1 (stereo not drawn) [Example 364, 5-Cyano-4,7-dihydro-4-(3-(morpholin-4-yl)phenyl)-6-propyl-2H-pyrazolo[3,4-b]pyridine]
The melting point of the first is higher: 220 °C for the first, 196 to 200 °C for the second.

First: N#CC1=C(c2ccccc2)Nc2n[nH]cc2C1c1cccc2ccccc12 (stereo not drawn) [Example 146, 5-Cyano-4,7-dihydro-4-(naphthalen-1-yl)-6-phenyl-2H-pyrazolo[3,4-b]pyridine]
Second: CCCC1=C(C(=O)OCC)C(c2ccccc2Cl)c2cn(C(=O)Nc3ccccc3)nc2N1 (stereo not drawn) [Example 215, Ethyl 4-(2-chlorophenyl)-4,7-dihydro-2-phenylcarbamoyl-6-propyl-2H-pyrazolo[3,4-b]pyridine-5-carboxylate]
The melting point of the first is higher: 174 °C for the first, 145 to 147 °C for the second.
